Measured values published in patent US6503881B2 (priority 1996, dated 2003).
Read-outs that look alike come from different tables or passages of the source.

Columns and labels:
[1] = system: inherently resistant microorganisms; details: for MBI 26 MIC +Vancomycin: Teicoplanin table; for MIC in combination: Vancomycin +MBI 26
[2] = system: K. pneumoniae; format: cell-based; details: for MIC Alone: agent alone; for MBI 26 MIC, +Erythro.: in combination with erythromycin
[3] = system: microorganisms with acquired resistance
[4] = system: E. faecalis; format: cell-based; details: for MBI 26 MIC, +Teicoplanin: in combination with teicoplanin; for MIC in combination: Teicoplanin + MBI 26

KWKSFIKKLTSAAKKVVTTAKPLISS [MBI 26]
MBI 26 MIC +Vancomycin ([1]; E. casseliflavus 97056 VanC): 2 µg/mL
MIC in combination ([1]; E. casseliflavus 97056 VanC): 1 µg/mL
MIC Alone ([1]; E. casseliflavus 97056 VanC, pair Teicoplanin / MBI 26): 64 µg/mL
MIC Alone ([1]; E. casseliflavus 97056 VanC, pair Vancomycin / MBI 26): 8 µg/mL
MBI 26 MIC +Vancomycin ([1]; E. casseliflavus 97057 VanC): 0.5 µg/mL
MIC in combination ([1]; E. casseliflavus 97057 VanC): 0.5 µg/mL
MIC Alone ([1]; E. casseliflavus 97057 VanC, pair Teicoplanin / MBI 26): 64 µg/mL
MIC Alone ([1]; E. casseliflavus 97057 VanC, pair Vancomycin / MBI 26): 2 µg/mL
MBI 26 MIC +Vancomycin ([1]; E. casseliflavus 97058 VanC): 0.5 µg/mL
MIC in combination ([1]; E. casseliflavus 97058 VanC): 0.25 µg/mL
MIC Alone ([1]; E. casseliflavus 97058 VanC, pair Teicoplanin / MBI 26): 32 µg/mL
MIC Alone ([1]; E. casseliflavus 97058 VanC, pair Vancomycin / MBI 26): 4 µg/mL
MBI 26 MIC +Vancomycin ([1]; E. casseliflavus 97059 VanC): 1 µg/mL
MIC in combination ([1]; E. casseliflavus 97059 VanC): 0.5 µg/mL
MIC Alone ([1]; E. casseliflavus 97059 VanC, pair Teicoplanin / MBI 26): 64 µg/mL
MIC Alone ([1]; E. casseliflavus 97059 VanC, pair Vancomycin / MBI 26): 32 µg/mL
MBI 26 MIC +Vancomycin ([1]; E. casseliflavus 97060 VanC): 1 µg/mL
MIC in combination ([1]; E. casseliflavus 97060 VanC): 0.25 µg/mL
MIC Alone ([1]; E. casseliflavus 97060 VanC, pair Teicoplanin / MBI 26): 64 µg/mL
MIC Alone ([1]; E. casseliflavus 97060 VanC, pair Vancomycin / MBI 26): 0.5 µg/mL
MBI 26 MIC +Vancomycin ([1]; E. gallinarum 97044 VanC): 1 µg/mL
MIC in combination ([1]; E. gallinarum 97044 VanC): 0.5 µg/mL
MIC Alone ([1]; E. gallinarum 97044 VanC, pair Teicoplanin / MBI 26): 64 µg/mL
MIC Alone ([1]; E. gallinarum 97044 VanC, pair Vancomycin / MBI 26): 8 µg/mL
MBI 26 MIC +Vancomycin ([1]; E. gallinarum 97046 VanC): 1 µg/mL
MIC in combination ([1]; E. gallinarum 97046 VanC): 4 µg/mL
MIC Alone ([1]; E. gallinarum 97046 VanC, pair Teicoplanin / MBI 26): 8 µg/mL
MIC Alone ([1]; E. gallinarum 97046 VanC, pair Vancomycin / MBI 26): 2 µg/mL
MBI 26 MIC +Vancomycin ([1]; E. gallinarum 97047 VanC): 32 µg/mL
MIC in combination ([1]; E. gallinarum 97047 VanC): 8 µg/mL
MIC Alone ([1]; E. gallinarum 97047 VanC, pair Teicoplanin / MBI 26): 64 µg/mL
MIC Alone ([1]; E. gallinarum 97047 VanC, pair Vancomycin / MBI 26): 64 µg/mL
MBI 26 MIC +Vancomycin ([1]; E. gallinarum 97048 VanC): 1 µg/mL
MIC in combination ([1]; E. gallinarum 97048 VanC): 2 µg/mL
MIC Alone ([1]; E. gallinarum 97048 VanC, pair Teicoplanin / MBI 26): 8 µg/mL
MIC Alone ([1]; E. gallinarum 97048 VanC, pair Vancomycin / MBI 26): 2 µg/mL
MBI 26 MIC +Vancomycin ([1]; E. gallinarum 97049 VanC): 32 µg/mL
MIC in combination ([1]; E. gallinarum 97049 VanC): 16 µg/mL
MIC Alone ([1]; E. gallinarum 97049 VanC, pair Teicoplanin / MBI 26): 64 µg/mL
MIC Alone ([1]; E. gallinarum 97049 VanC, pair Vancomycin / MBI 26): 64 µg/mL
MIC Alone ([2]; K. pneumoniae KP001): 16 µg/mL
MBI 26 MIC, +Erythro. ([2]; K. pneumoniae KP001): 8 µg/mL
MIC Alone ([2]; K. pneumoniae KP002): 64 µg/mL
MBI 26 MIC, +Erythro. ([2]; K. pneumoniae KP002): 32 µg/mL
Peptide MIC ([3]; S. aureus SA7609, pair Erythromycin / MBI 26): 1 µg/mL
Peptide MIC ([3]; S. aureus SA7795, pair Erythromycin / MBI 26): 8 µg/mL
Peptide MIC ([3]; S. aureus SA7796, pair Erythromycin / MBI 26): 2 µg/mL
Peptide MIC ([3]; S. aureus SA7818, pair Methicillin / MBI 26): 2 µg/mL
Peptide MIC ([3]; S. aureus SA7835, pair Erythromycin / MBI 26): 2 µg/mL
Peptide MIC ([3]; S. aureus SA7835, pair Methicillin / MBI 26): 16 µg/mL
Peptide MIC ([3]; S. epidermidis SE8403, pair Erythromycin / MBI 26): 2 µg/mL
Peptide MIC ([3]; S. epidermidis SE8410, pair Erythromycin / MBI 26): 1 µg/mL
Peptide MIC ([3]; S. epidermidis SE8411, pair Erythromycin / MBI 26): 1 µg/mL
Peptide MIC ([3]; S. epidermidis SE8497, pair Clindamycin / MBI 26): 2 µg/mL
Peptide MIC ([3]; S. epidermidis SE8497, pair Erythromycin / MBI 26): 1 µg/mL
Peptide MIC ([3]; S. epidermidis SE8503, pair Erythromycin / MBI 26): 1 µg/mL
Peptide MIC ([3]; S. epidermidis SE8565, pair Erythromycin / MBI 26): 1 µg/mL
Peptide MIC ([3]; S. haemolyticus SH8472, pair Ampicillin / MBI 26): 16 µg/mL
Peptide MIC ([3]; S. haemolyticus SH8563, pair Methicillin / MBI 26): 2 µg/mL
Peptide MIC ([3]; S. haemolyticus SH8575, pair Ampicillin / MBI 26): 8 µg/mL
Peptide MIC ([3]; S. haemolyticus SH8578, pair Erythromycin / MBI 26): 0.1 µg/mL
Peptide MIC ([3]; S. haemolyticus SH8597, pair Clindamycin / MBI 26): 1 µg/mL
MIC Alone ([4]; E. faecalis 97040 VanB, agent alone): 64 µg/mL
MBI 26 MIC, +Teicoplanin ([4]; E. faecalis 97040 VanB): 8 µg/mL
MIC Alone ([4]; E. faecalis 97041 VanB, agent alone): 64 µg/mL
MBI 26 MIC, +Teicoplanin ([4]; E. faecalis 97041 VanB): 8 µg/mL
MIC Alone ([4]; E. faecalis 97042 VanB, agent alone): 64 µg/mL
MBI 26 MIC, +Teicoplanin ([4]; E. faecalis 97042 VanB): 8 µg/mL
MIC Alone ([4]; E. faecalis 97043 VanB, agent alone): 64 µg/mL
MBI 26 MIC, +Teicoplanin ([4]; E. faecalis 97043 VanB): 8 µg/mL
MIC Alone ([4]; E. faecalis 97050 VanA): 64 µg/mL
MIC in combination ([4]; E. faecalis 97050 VanA): 8 µg/mL
MIC Alone ([4]; E. faecalis 97051 VanA): 64 µg/mL
MIC in combination ([4]; E. faecalis 97051 VanA): 8 µg/mL
MIC Alone ([4]; E. faecalis 97052 VanA): 64 µg/mL
MIC in combination ([4]; E. faecalis 97052 VanA): 8 µg/mL
MIC Alone ([4]; E. faecalis 97053 VanA): 64 µg/mL
MIC in combination ([4]; E. faecalis 97053 VanA): 8 µg/mL
MIC Alone ([4]; E. faecalis 97054 VanA): 64 µg/mL
MIC in combination ([4]; E. faecalis 97054 VanA): 8 µg/mL
MIC Alone ([4]; E. faecalis 97055 VanA): 64 µg/mL
MIC in combination ([4]; E. faecalis 97055 VanA): 8 µg/mL
